# Patent publication US20240058364A1, “A COMPOSITION FOR USE IN THE TREATMENT OF RECTAL AND/OR INTESTINAL INFLAMMATION” (CANNAMORE BIOTECHS LTD., priority 2020, published 2024)
# Tested on: IL8 secretion from TNFα induced Caco-2 cells
# Assay: IL8 secretion from TNFα induced Caco-2 cells (HTRF)
# Type: cell-based, Human
# Details: 24 h incubation; combinations: CBD 30 μM with NaB or NaP 20 mM
# Protocol: Cell lines were cultured according to standard mammalian tissue culture protocols and sterile technique. Human colon epithelial cells, Caco-2, were cultured in high glucose Dulbecco's Modified Eagle Medium (DMEM). Human monocytes THP-1 cells line were cultured in RPMI medium 1640. Both media were supplemented with 10% fetal bovine serum (FBS), 2 mM 1-glutamine and 0.1% penicillin-streptomycin solution in a humidified atmosphere (5% CO2, 95% air, 37° C.) in a 75 cm2 cell culture treated flask (Eppendorf). All the media and supplements were obtained from Biological Industries.
# Interleukin 8 (IL 8) detection and quantification was performed with Homogeneous Time-Resolved fluorescence (HTRF).
# Caco-2 cells were seeded in a 96 micro well delta surface plates (Eppendorf) at a starting confluence of 2×10^4 cells/well and were incubated for 21 days. Growth medium was replaced every 2-3 days.
# After 22 days, the medium was replaced with medium containing both TNFα (as a damage inducer) and the tested sample (as treatment) using specific media containing 5% FBS. After 24 hours incubation, the supernatant was collected and stored for cytokine analysis. The supernatant was diluted up to 5 times in working media to avoid the hook effect.
# HTRF assays were performed in white 96-well plate (CisBio Bioassays) with a total working volume of 20 μL. All HTRF reagents were purchased from CisBio Bioassays and reconstituted according to the manufacturer protocols. For each assay 16 μL of diluted supernatants samples were incubate with 4 μL mixed solution containing donor and acceptor antibodies.
# After 2 h incubation HTRF signals were measured using SPARK multimode microplate reader with an excitation filter at 320 nm and fluorescence wavelength measurement at 620 and 665 nm, an integration delay of 60 μs and an integration time of 400 μs. Results were analyzed with a two-wavelength signal ratio: [intensity (665 nm)/intensity (620 nm)]*104. Calculation and analysis of cytokines release was performed according to the manufacturer protocols and using the 4PL 1/Y2 formula in GraphPad Prism software.
row,SMILES,IL8 secretion from TNFα induced Caco2 cells (result in words)
1,"C=C(C)[C@@H]1CCC(C)=C[C@H]1c1c(O)cc(CCCCC)cc1O [CBD, 2-[(6R)-3-Methyl-6-prop-1-en-2-yl-1cyclohex-2-envyl]-5pentylbenzene-1,3-diol, reference compound]",didn't exhibit any significant effect
2,"CCCC(=O)[O-].[Na+] [NaB, sodium butyrate]",didn't exhibit any significant effect
3,"CCC(=O)[O-].[Na+] [NaP, sodium propionate]",mild reduction of IL8 secretion
